One assay concerns Plasmodium falciparum. In words: Antimalarial activity against Plasmodium falciparum NF54. The format is functional. The conditions noted are these: NF-54.
The test system of assay [1] is Mycobacterium tuberculosis. In words: Antitubercular activity against Mycobacterium tuberculosis H37Ra. The class given is functional.

In brackets after ≈: the same amount, converted by molar mass.

What is called MIC is the lowest concentration that inhibits growth of the organism. Lower therefore signals inhibition by little substance. In the assay on Plasmodium falciparum, `Oc1ccc(-c2cc(-c3ccccc3)nc(N3CCOCC3)n2)cc1` gave an MIC of 2 µg/mL (≈ 6 µM).

With `Oc1ccc(-c2cc(-c3ccccc3)nc(NCCCn3ccnc3)n2)cc1`, the results for the MIC (against Plasmodium falciparum; in assay [1]) were 0.5 µg/mL (≈ 1.35 µM) and 25 µg/mL (≈ 67.3 µM), respectively.

As for `COc1ccc(-c2cc(-c3ccc(O)cc3)nc(NCCCn3ccnc3)n2)cc1OC`, the MIC against Plasmodium falciparum amounted to 0.25 µg/mL (≈ 0.579 µM); in assay [1], 12.5 µg/mL (≈ 29 µM).

Turning to `CCN(CC)CCCC(C)Nc1nc(-c2ccc(O)cc2)cc(-c2cc(OC)ccc2OC)n1` (configuration not stated), the minimum inhibitory concentration (MIC) is 10 µg/mL (≈ 21.5 µM) against Plasmodium falciparum and 12.5 µg/mL (≈ 26.9 µM) in assay [1].

Take `CCN(CC)CCCC(C)Nc1nc(-c2ccc(O)cc2)cc(-c2ccc(OC)c(OC)c2)n1` (configuration not stated): the values for the MIC (with Plasmodium falciparum; in assay [1]) were 2 µg/mL (≈ 4.3 µM) and 12.5 µg/mL (≈ 26.9 µM), respectively.

For `COc1ccc(OC)c(-c2cc(-c3ccc(O)cc3)nc(NCCCN3CCOCC3)n2)c1`, the minimal inhibitory concentration (MIC) was 0.5 µg/mL (≈ 1.11 µM) against Plasmodium falciparum and 25 µg/mL (≈ 55.5 µM) in assay [1].

On to `CCN(CC)CCCC(C)Nc1nc(-c2ccc(O)cc2)cc(-c2ccc(OC)cc2)n1` (configuration not stated), for which the values for the MIC (against Plasmodium falciparum; in assay [1]) were 10 µg/mL (≈ 23 µM) and 12.5 µg/mL (≈ 28.8 µM), respectively.

Consider `COc1ccc(-c2cc(-c3ccc(O)cc3)nc(NCCCn3ccnc3)n2)cc1`, for which the MIC worked out at 1 µg/mL (≈ 2.49 µM) in the assay on Plasmodium falciparum and 12.5 µg/mL (≈ 31.1 µM) in assay [1].

On to `CCN(CC)CCCC(C)Nc1nc(-c2ccc(C)cc2)cc(-c2ccc(O)cc2)n1` (configuration not stated), for which the MIC with Plasmodium falciparum came to 50 µg/mL (≈ 119 µM).

With `COc1ccc(-c2cc(-c3ccc(O)cc3)nc(N3CCOCC3)n2)cc1`, the MIC in the assay on Plasmodium falciparum stood at 1 µg/mL (≈ 2.75 µM).

In turn, `COc1ccc(OC)c(-c2cc(-c3ccc(O)cc3)nc(N3CCOCC3)n2)c1` displayed an MIC in the assay with Plasmodium falciparum of 0.5 µg/mL (≈ 1.27 µM).

In the assay with Plasmodium falciparum, `Cc1ccc(-c2cc(-c3ccc(O)cc3)nc(N3CCOCC3)n2)cc1` gave an MIC of 2 µg/mL (≈ 5.76 µM).

In the case of `CCN(CC)CCCC(C)Nc1nc(-c2ccccc2)cc(-c2ccc(O)cc2)n1` (configuration not stated), the MIC in the assay on Plasmodium falciparum turned out to be 10 µg/mL (≈ 24.7 µM); in assay [1], 25 µg/mL (≈ 61.8 µM).

In the case of `COc1ccc(-c2cc(-c3ccc(O)cc3)nc(N3CCOCC3)n2)cc1OC`, the MIC in the assay with Plasmodium falciparum stood at 0.5 µg/mL (≈ 1.27 µM).

With `COc1ccc(-c2cc(-c3ccc(O)cc3)nc(NCCCN3CCOCC3)n2)cc1`, the MIC turned out to be 1 µg/mL (≈ 2.38 µM) with Plasmodium falciparum and 12.5 µg/mL (≈ 29.7 µM) in assay [1].

`Cc1ccc(-c2cc(-c3ccc(O)cc3)nc(NCCCN3CCOCC3)n2)cc1`: 2 µg/mL (≈ 4.94 µM) was the least that counted as inhibitory in the assay on Plasmodium falciparum (MIC).

Regarding `COc1ccc(-c2cc(-c3ccc(O)cc3)nc(NCCCN3CCOCC3)n2)cc1OC`, the minimal inhibitory concentration (MIC) with Plasmodium falciparum came to 0.5 µg/mL (≈ 1.11 µM); in assay [1], 25 µg/mL (≈ 55.5 µM).

As for `Oc1ccc(-c2cc(-c3ccccc3)nc(NCCCN3CCOCC3)n2)cc1`, the MIC against Plasmodium falciparum turned out to be 2 µg/mL (≈ 5.12 µM); in assay [1], 12.5 µg/mL (≈ 32 µM).

In the case of `Cc1ccc(-c2cc(-c3ccc(O)cc3)nc(NCCCn3ccnc3)n2)cc1`, the lowest concentration to inhibit growth with Plasmodium falciparum (MIC) was 2 µg/mL (≈ 5.19 µM).

As for `COc1ccc(OC)c(-c2cc(-c3ccc(O)cc3)nc(NCCCn3ccnc3)n2)c1`, the MIC in the assay with Plasmodium falciparum was 0.25 µg/mL (≈ 0.579 µM); in assay [1], 12.5 µg/mL (≈ 29 µM).

The record behind these values is ChEMBL document CHEMBL1141867, “A small library of trisubstituted pyrimidines as antimalarial and antitubercular agents” (2005).
